# How the values were obtained:
# pancreatic alpha-amylase = target: T1, pancreatic alpha-amylase (Homo sapiens, UniProt P04746); settings: background statement, in vitro; cited from earlier work
# T1 sequence (P04746 16-511): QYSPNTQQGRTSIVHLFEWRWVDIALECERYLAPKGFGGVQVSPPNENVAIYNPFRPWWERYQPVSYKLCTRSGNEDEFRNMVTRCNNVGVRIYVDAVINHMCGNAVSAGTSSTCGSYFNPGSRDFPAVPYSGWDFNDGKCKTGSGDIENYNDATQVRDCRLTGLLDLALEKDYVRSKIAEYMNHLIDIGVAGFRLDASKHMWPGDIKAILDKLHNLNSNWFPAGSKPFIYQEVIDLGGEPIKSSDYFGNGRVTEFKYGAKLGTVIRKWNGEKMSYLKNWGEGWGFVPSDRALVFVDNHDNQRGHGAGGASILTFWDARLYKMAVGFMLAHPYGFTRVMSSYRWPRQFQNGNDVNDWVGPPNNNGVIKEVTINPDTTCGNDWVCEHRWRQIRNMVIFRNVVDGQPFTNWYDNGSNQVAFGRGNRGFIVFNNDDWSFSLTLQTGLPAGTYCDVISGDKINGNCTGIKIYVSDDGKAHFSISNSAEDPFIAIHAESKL
# [1] = system: intestinal alpha-glucosidase; settings: background statement, in vitro; cited from earlier work
# [2] = Blood levels of biomolecules before and 90 minutes after administration; assay type: in vivo, human
# Protocol: Subject 5 was a person, weighing approximately 285 pounds and with a normal fasting blood sugar level of 115-120. First, blood was drawn from Subject 5 and levels of various biomolecules were measured. Next, Subject 5 was administered 16.66 ml of the Example 1 formulation on an empty stomach, i.e. wherein with each 16.66 ml the subject received 5,000 mg of the potassium-magnesium (−)-hydroxycitric acid salt, corresponding to 3490 mg of (−)-hydroxycitric acid. 90 minutes after the administration, blood was drawn from Subject 5 and levels of the various biomolecules were remeasured.
# Subject 6 was administered 16.66 ml of the Example 1 formulation on an empty stomach, i.e. wherein with each 16.66 ml the subject received 5,000 mg of the potassium-magnesium (−)-hydroxycitric acid salt, corresponding to 3490 mg of (−)-hydroxycitric acid. 90 minutes after the administration, blood was drawn from Subject 6 and levels of the various biomolecules were remeasured.
# [3] = fNIRS measurement of blood hemoglobin and oxygen saturation after oral administration; assay type: in vivo, human; settings: overall statement on HCA administration
# Protocol: Subjects 1-4 were orally administered the formulation of Example 1. The Subjects were given either one or two administrations of 8.33 ml of the aqueous formulation of Example 1 on an empty stomach, i.e. wherein with each 8.33 ml the subject received 2,500 mg of the potassium-magnesium (−)-hydroxycitric acid salt, corresponding to 1745 mg of (−)-hydroxycitric acid.
# fNIRS testing (functional Near Infrared Spectroscopy) was used to measure blood hemoglobin and oxygen saturation. fNIRS can be used to determine real-time peripheral and cerebral hemodynamic responses. For example, relative changes in HbR (deoxygen saturation), HbO (oxygen saturation), and HbT (total hemoglobin concentration), etc. can be determined via application of Modified Beer Lambert Law. HbR, Hb=deoxygen saturation (shown as the thinnest and bottom dashed line in FIG. 1) HbO, HbO2=oxygen saturation (shown as the medium-thickness and middle line in FIG. 1) HbT=total hemoglobin concentration (shown as the darkest, thickest and top line in FIG. 1). On the graphs, time is in seconds.
# ATP citrate lyase = target: T2, ATP citrate lyase (Homo sapiens, UniProt P53396); settings: background statement; cited from earlier work
# T2 sequence (P53396 1-1101): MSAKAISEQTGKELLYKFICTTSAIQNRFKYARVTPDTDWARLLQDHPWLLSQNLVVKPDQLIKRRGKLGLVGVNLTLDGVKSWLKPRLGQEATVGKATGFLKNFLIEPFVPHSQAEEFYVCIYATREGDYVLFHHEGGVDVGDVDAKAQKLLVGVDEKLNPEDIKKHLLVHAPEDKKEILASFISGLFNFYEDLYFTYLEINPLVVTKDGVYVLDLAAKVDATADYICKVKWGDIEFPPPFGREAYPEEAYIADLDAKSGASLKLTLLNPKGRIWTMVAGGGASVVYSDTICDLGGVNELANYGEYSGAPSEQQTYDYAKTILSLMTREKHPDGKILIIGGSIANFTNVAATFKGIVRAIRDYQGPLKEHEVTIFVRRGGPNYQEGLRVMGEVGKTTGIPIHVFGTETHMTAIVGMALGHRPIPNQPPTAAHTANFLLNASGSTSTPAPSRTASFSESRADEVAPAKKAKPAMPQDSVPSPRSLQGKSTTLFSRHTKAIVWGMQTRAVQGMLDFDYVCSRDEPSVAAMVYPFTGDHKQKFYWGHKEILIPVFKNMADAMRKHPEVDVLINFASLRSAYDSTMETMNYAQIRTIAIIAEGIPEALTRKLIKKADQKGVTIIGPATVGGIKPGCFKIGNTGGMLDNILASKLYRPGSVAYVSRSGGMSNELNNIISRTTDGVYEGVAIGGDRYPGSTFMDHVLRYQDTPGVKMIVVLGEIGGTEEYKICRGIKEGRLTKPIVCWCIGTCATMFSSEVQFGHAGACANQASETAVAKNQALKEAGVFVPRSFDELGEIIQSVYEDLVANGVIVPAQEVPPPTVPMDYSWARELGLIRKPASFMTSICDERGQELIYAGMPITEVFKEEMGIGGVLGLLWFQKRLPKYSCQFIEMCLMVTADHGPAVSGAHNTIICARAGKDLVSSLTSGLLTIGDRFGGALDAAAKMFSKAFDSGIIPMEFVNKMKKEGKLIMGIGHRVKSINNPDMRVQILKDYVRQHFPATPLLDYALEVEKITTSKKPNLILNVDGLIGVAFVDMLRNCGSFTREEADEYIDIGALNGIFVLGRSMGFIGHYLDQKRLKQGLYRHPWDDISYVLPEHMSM
# [4] = overall conclusion on HCA administration
compound,measurement,setting,value
"O=C(O)C[C@](O)(C(=O)O)[C@H](O)C(=O)O [(2S,3R)-HCA]",inhibition of pancreatic alpha-amylase,pancreatic alpha-amylase,inhibits
same,inhibition of intestinal alpha-glucosidase,[1],inhibits
"O=C(O)CC(O)(C(=O)O)C(O)C(=O)O (stereo not shown) [HCA, 1,2-dihydroxypropane-1,2,3-tricarboxylic acid]",Ketones Result,"[2]; Subject 5, 16.66 ml on empty stomach, 90 mins after administration, before (fasting) 0.6",0.5
same,cortisol,[2]; [4],decreased
same,levels of ketones,[2]; [4],relatively stable or slightly lower levels
same,triglycerides,[2]; [4],decreased
same,glucose,"[2]; overall conclusion on HCA administration, in some cases transient",increased
same,blood hemoglobin,[3],increased
same,oxygen saturation,[3],increased
same,inhibition of ATP citrate lyase,ATP citrate lyase,competitive inhibitor

# Source: US11957649B2, “Methods and pharmaceutical preparations for elevating ketone utilization” (GLYKON TECHNOLOGIES GROUP, LLC, priority 2020, dated 2024)
